Patent EP4574817A1 (LoQus23 Therapeutics Limited, priority 2023, dated 2025)

What was measured:
U20S-IC6 cells = test: Lo-Q platform assay (CAG repeat expansion in a clonal cell line with tetracycline-regulated exon 1 HTT ~100 CAG / nanoluc); format: cell-based; settings: 336 h, 2-week assay with tetracycline pulsing, read-out: Minimum effective concentration (MEC)
Description: The cell line that was used in the assay below was generated as follows:
The pcDNA™4/TO vector contains two tetracycline operator 2 (TetO2) sites within the human cytomegalovirus immediate-early (CMV) promoter for tetracycline regulated expression of your gene of interest (Yao et al., 1998). The TetO2 sequences serve as binding sites for four Tet repressor molecules (comprising two Tet repressor homodimers) and confer tetracycline-responsiveness to the gene of interest. In the absence of tetracycline, expression of your gene of interest is repressed by the binding of Tet repressor homodimers to the TetO2 sequences. Addition of tetracycline to the cells de-represses the hybrid CMV/TetO2 promoter in pcDNA™4/TO and allows expression of your gene of interest. The pcDNA™6/TR regulatory plasmid is designed for use with the T-REx™ System for tetracycline-regulated expression of the gene of interest in mammalian cells. (www.lifetechnologies.com).
The expression sequence comprises exon 1 huntingtin with ~100 pure CAG repeats, a P2A self-cleaving peptide and a nanoluc sequence followed by a polyA signal. Full plasmid sequence is indicated (Seq ID NO:3). The plasmid contains sequences for ampicillin (bacterial propagation) and zeocin (mammalian cell lines) resistance.
The U-2 OS cell line (purchased from LGC standards, ATCC) is derived from a moderately differentiated sarcoma from the tibia of an adolescent person. Karyotyping has shown that although there are a lot of chromosomal abnormalities the tumour suppressor genes p53 and pRb are still fully functional in the U2OS cell line.
Routine culture of the adherent cells in non-PDL plastic ware in a humidified 37°C incubator with 5% CO2. Cells were maintained in McCoy's 5A (modified) medium with GlutaMAX supplement (Life Technologies 3660-021) and tetracycline-free FBS (Clontech 631106). Maintenance medium for the clonal cell lines expressing Tet repressor and exon 1 HTT/nanoluc constructs were additionally supplemented with zeocin to 100 ug/ml and blasticidin to 1.25 ug/ml. Cells were passaged at 70-80% confluence once or twice a week, either to a split ratio or defined seeding density using DPBS and TrypLE express enzyme (1x, no phenol red, Life technologies 12604-039) was used to dissociate the cells. Cells were frozen with Cell Banker (AMSBIO 11891) or with medium plus 10% DMSO and stored in liquid nitrogen vapour phase.
Stable, clonal cell lines (e.g. 1C6) are leveraged either identify potential druggable targets, and to assess the effectiveness of therapeutic compounds against a Huntington's disease, by way of quantifying CAG repeats expansion rates.
• Place a vial of the cell line U20S-IC6 (1-2×10^6 cells/mL), produced as described above, in a water bath at 37°C for 30 s. Once thawed, quickly transfer the cells into a 15 mL falcon tube containing 9 mL of McCoys 5A media, supplemented with 10% Tet-free FBS. • Pellet the cells by centrifugation at 300 x g for 5 m and discard the supernatant. • Resuspend the cell pellet in 10 mL fresh media and transfer to a sterile T75 culture flask. • Inspect the culture after 24 h and maintain the cells below 80% confluency, typically passaging every 3-4 days.
The Lo-Q platform has been optimised to run as a 2-week assay, following the standard processes detailed in the schematic in Figure 1A.
• Cell seeding for Lo-Q platform assays should be initiated on Mondays (am) to ensure Tetracycline pulsing can be maintained every other day. • The Friday prior to initiating any Lo-Q platform assay ensure there are sufficient cells in culture to seed the required number of assay plates. If required, passage the cells, otherwise perform a media change to McCoys 5A, 10% Tet-free FBS, 1.25 µg/mL Blasticidin®, and 100 µg/mL Zeocin®. • On the Monday morning, aspirate the media from the required number of culture flasks containing U20S-IC6 cells and wash with 2 mL PBS. • Aspirate the PBS and add 2 mL 0.25% Trypsin EDTA. […]

MutSβ = target: T1, MutSβ (Homo sapiens, UniProt P20585+P43246); test: MutSβ ADP Glo Assay; format: biochemical; settings: 20nM MutSβ, 30nM CAG DNA, 25 µM ATP, 2 hours at room temperature
T1 construct: purchased AMRI
T1 sequence (P43246 whole entry): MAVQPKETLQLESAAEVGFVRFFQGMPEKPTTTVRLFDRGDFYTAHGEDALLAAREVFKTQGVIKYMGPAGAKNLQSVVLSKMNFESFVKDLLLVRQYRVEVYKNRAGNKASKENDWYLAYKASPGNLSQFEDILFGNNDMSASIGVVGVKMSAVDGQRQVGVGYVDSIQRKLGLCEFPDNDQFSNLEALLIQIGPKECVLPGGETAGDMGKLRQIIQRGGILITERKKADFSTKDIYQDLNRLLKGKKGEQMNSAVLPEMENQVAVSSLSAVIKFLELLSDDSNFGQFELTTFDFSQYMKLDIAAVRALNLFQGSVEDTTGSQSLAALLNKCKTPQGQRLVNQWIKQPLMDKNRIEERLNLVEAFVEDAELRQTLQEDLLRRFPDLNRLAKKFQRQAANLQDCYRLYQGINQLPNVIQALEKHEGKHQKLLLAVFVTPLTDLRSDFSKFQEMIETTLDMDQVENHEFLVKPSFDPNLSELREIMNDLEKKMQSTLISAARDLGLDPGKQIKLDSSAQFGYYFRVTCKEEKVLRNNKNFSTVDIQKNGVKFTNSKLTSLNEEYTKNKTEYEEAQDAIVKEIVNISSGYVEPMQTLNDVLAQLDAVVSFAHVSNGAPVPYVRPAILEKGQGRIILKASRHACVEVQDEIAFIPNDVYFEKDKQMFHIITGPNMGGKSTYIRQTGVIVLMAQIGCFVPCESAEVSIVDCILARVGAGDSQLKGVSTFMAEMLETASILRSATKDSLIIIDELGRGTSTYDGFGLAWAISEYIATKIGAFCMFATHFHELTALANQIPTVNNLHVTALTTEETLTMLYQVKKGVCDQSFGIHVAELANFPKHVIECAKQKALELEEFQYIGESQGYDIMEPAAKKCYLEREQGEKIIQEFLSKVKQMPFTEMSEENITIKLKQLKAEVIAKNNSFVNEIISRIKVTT
T1 sequence (P20585 whole entry): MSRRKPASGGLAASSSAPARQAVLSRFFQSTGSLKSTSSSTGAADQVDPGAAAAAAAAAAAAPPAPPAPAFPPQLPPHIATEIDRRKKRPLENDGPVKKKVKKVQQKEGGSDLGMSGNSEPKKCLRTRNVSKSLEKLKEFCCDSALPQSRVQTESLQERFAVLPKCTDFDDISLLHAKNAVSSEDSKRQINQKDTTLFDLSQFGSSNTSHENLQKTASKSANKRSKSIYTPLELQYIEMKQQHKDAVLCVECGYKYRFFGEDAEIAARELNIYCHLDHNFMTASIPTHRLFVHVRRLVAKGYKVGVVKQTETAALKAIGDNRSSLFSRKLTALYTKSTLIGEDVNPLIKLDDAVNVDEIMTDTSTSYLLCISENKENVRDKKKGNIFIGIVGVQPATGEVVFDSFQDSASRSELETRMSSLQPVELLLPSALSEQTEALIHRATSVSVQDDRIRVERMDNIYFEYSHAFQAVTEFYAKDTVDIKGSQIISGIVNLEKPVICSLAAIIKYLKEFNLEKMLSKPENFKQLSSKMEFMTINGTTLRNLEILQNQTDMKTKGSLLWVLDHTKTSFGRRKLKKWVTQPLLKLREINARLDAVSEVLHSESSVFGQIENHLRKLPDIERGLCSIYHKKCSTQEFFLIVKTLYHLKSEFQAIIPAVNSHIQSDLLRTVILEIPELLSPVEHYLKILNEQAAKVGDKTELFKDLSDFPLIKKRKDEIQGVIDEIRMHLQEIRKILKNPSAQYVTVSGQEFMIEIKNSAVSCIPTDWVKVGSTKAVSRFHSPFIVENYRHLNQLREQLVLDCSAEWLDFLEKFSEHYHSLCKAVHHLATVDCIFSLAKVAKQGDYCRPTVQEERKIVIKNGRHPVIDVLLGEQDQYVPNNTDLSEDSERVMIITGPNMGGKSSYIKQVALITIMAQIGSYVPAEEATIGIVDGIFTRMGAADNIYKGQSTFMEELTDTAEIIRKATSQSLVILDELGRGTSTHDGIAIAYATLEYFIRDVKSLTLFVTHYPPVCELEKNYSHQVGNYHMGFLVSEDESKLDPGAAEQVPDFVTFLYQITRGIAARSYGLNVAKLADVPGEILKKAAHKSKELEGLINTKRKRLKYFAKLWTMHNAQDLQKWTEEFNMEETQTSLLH
Method: Biological Example A - MutSβ Assay
• MutSβ (supplied by AMRI) stored at -70°C • ADP Glo Kinase Assay Kit (Promega: V9102) stored at -20°C • ATP (supplied within the ADP Glo Kit) stored at -20°C • 1M KCI (Sigma Aldrich: P9333) stored at 2-8°C • 1 M HEPES pH 7.5 (Gibco: M15630-080) stored at 2-8°C • 1M MgCl2 (Sigma Aldrich: M1028-100mL) stored at 2-8°C • Tween-20 (Sigma Aldrich: P1379) (10% solution) stored at 2-8°C • 500mM DTT (Sigma Aldrich: 10197777001) stored at -20°C • CAG loop DNA for MutSβ (made in house) stored at -20°C • MilliQ water stored at room temperature
• 1. Prepare the buffer fresh each day • 2. Take the enzyme from the freezer, thaw in room temperature water and centrifuge at 13,000 rpm for 10 minutes at 2-8C, then make up enzyme and ATP stocks • 3. Quality Control the multidrop head to a %CV of <2% • 4. Add 3µL of 33.34nM MutSβ and 50.01nM CAG looped DNA solution […] to each well in columns 1 and 3-23 of the plate • 5. Pre-incubate the MutSβ and buffer mix for 10 minutes with the compounds • 6. Wash the multidrop head through with MilliQ water (for at least 30 seconds) • 7. Add 3µL of MutSβ Assay buffer (without enzyme) to columns 2 and 24 for the vehicle controls • 8. Wash the multidrop head through with MilliQ water (for at least 30 seconds) • 9. Add 2µL of 62.5µM ATP to each well of the whole plate, then wash with MilliQ water (for a minimum of 30 seconds) • 10. Centrifuge plate for 1 minute at 1000 rpm • 11. Incubate for 2 hours at room temperature • 12. Add 5µL of ADP Glo reagent to each well of the whole plate and wash the multidrop head with MilliQ water (for a minimum of 30 seconds) • 13. Incubate for 40 minutes at room temperature (minimum requirement) • 14. Add 10µL of Kinase Detection Reagent to each well of the whole plate • 15. Wash the multidrop head with MilliQ water more than 1 minute and then dry • 16. Remove the head and put the cover back on for overnight storage • 17. Incubate for 30 minutes at room temperature (minimum requirement) • 18. Read on a microplate reader

| Structure (SMILES) | minimal effective concentration (U20S-IC6 cells) [µM] | IC50 (MutSβ) [µM] |
| --- | --- | --- |
| CNS(=O)(=O)OCC(=O)N(C)c1nc(C)c(Cc2cccc(Cl)c2)s1 [Example 1, 2-((5-(3-chlorobenzyl)-4-methylthiazol-2-yl)(methyl)amino)-2-oxoethyl methylsulfamate] | ≤ 0.1 | ≤ 0.5 |
| CNS(=O)(=O)OCC(=O)Nc1nc(C)c(Cc2cccc(Br)c2)s1 [Example 10, 2-((5-(3-bromobenzyl)-4-methylthiazol-2-yl)amino)-2-oxoethyl methylsulfamate] | 0.1 to 0.5 | ≤ 0.5 |
| CNS(=O)(=O)OCC(=O)Nc1nc(C)c(Cc2ccc(Cl)c(Cl)c2)s1 [Example 12, 2-((5-(3,4-dichlorobenzyl)-4-methylthiazol-2-yl)amino)-2-oxoethyl methylsulfamate] | 0.5 to 1 | ≤ 0.5 |
| CNS(=O)(=O)OCC(=O)Nc1nc(C)c(Cc2ccc(F)c(F)c2)s1 [Example 14, 2-((5-(3,4-difluorobenzyl)-4-methylthiazol-2-yl)amino)-2-oxoethyl methylsulfamate] | 0.1 to 0.5 | 1 to 10 |
| CCNS(=O)(=O)OCC(=O)Nc1nc(C)c(Cc2ccc(C)cc2)s1 [Example 15, 2-((4-methyl-5-(4-methylbenzyl)thiazol-2-yl)amino)-2-oxoethyl ethylsulfamate] | 0.5 to 1 | 1 to 10 |
| CNS(=O)(=O)OCC(=O)Nc1nc(C)c(Cc2cccc(Cl)c2)s1 [Example 19, 2-((5-(3-chlorobenzyl)-4-methylthiazol-2-yl)amino)-2-oxoethyl methylsulfamate] | ≤ 0.1 | 0.5 to 1 |
| CNS(=O)(=O)OCC(=O)Nc1nc(C)c(Cc2cccc(F)c2)s1 [Example 27, 2-((5-(3-fluorobenzyl)-4-methylthiazol-2-yl)amino)-2-oxoethyl methylsulfamate] | 0.1 to 0.5 | 1 to 10 |
| CCN(C)S(=O)(=O)OCC(=O)Nc1nc(C)c(Cc2ccc(C)cc2)s1 [Example 39, 2-((4-methyl-5-(4-methylbenzyl)thiazol-2-yl)amino)-2-oxoethyl ethyl(methyl)sulfamate] | 1 to 5 | 1 to 10 |
| CCNS(=O)(=O)OCC(=O)Nc1nc(C)c(Cc2cccc(Cl)c2)s1 [Example 46, 2-((5-(3-chlorobenzyl)-4-methylthiazol-2-yl)amino)-2-oxoethyl ethylsulfamate] | ≤ 0.1 | ≤ 0.5 |
| CNS(=O)(=O)OCC(=O)Nc1nc(COC2CCN(C)CC2)c(Cc2cccc(Cl)c2)s1 [Example 50, 2-((5-(3-chlorobenzyl)-4-(((1-methylpiperidin-4-yl)oxy)methyl)thiazol-2-yl)amino)-2-oxoethyl methylsulfamate] |  | 10 to 50 |
| CNS(=O)(=O)OCC(=O)Nc1nc(CO)c(Cc2ccc(C)cc2)s1 [Example 51, 2-((4-(hydroxymethyl)-5-(4-methylbenzyl)thiazol-2-yl)amino)-2-oxoethyl methylsulfamate] |  | 10 to 50 |
| CNS(=O)(=O)OCC(=O)Nc1nc(C)c(C(C)(C)c2cccc(Cl)c2)s1 [Example 52, 2-((5-(2-(3-chlorophenyl)propan-2-yl)-4-methylthiazol-2-yl)amino)-2-oxoethyl methylsulfamate] |  | 10 to 50 |
| CNS(=O)(=O)OCC(=O)Nc1nc(C)c(Cc2cccc(Cl)c2F)s1 [Example 53, 2-((5-(3-chloro-2-fluorobenzyl)-4-methylthiazol-2-yl)amino)-2-oxoethyl methylsulfamate] |  | 1 to 10 |
| CNS(=O)(=O)OCC(=O)Nc1nc(C)c(Cc2cc(F)cc(Cl)c2)s1 [Example 54, 2-((5-(3-chloro-5-fluorobenzyl)-4-methylthiazol-2-yl)amino)-2-oxoethyl methylsulfamate] |  | 1 to 10 |
| CNS(=O)(=O)OCC(=O)Nc1nc(C)c(Cc2cc(Cl)ccc2F)s1 [Example 55, 2-((5-(5-chloro-2-fluorobenzyl)-4-methylthiazol-2-yl)amino)-2-oxoethyl methylsulfamate] |  | 1 to 10 |
| CNS(=O)(=O)OCC(=O)Nc1nc(C=O)c(Cc2cccc(Cl)c2)s1 [Example 56, 2-((5-(3-chlorobenzyl)-4-formylthiazol-2-yl)amino)-2-oxoethyl methylsulfamate] |  | 1 to 10 |
| CCN(C(=O)COS(=O)(=O)NC)c1nc(C)c(Cc2cccc(Cl)c2)s1 [Example 57, 2-((5-(3-chlorobenzyl)-4-methylthiazol-2-yl)(ethyl)amino)-2-oxoethyl methylsulfamate] |  | 0.5 to 1 |
| CNS(=O)(=O)OCC(=O)Nc1nc(CN2CCOCC2)c(Cc2cccc(Cl)c2)s1 [Example 58, 2-((5-(3-chlorobenzyl)-4-(morpholinomethyl)thiazol-2-yl)amino)-2-oxoethyl methylsulfamate] |  | 10 to 50 |
| CNS(=O)(=O)OCC(=O)N(C)c1nc(C)c(Cc2ccc(Cl)c(Cl)c2)s1 [Example 59, 2-((5-(3,4-dichlorobenzyl)-4-methylthiazol-2-yl)(methyl)amino)-2-oxoethyl methylsulfamate] |  | ≤ 0.5 |
| CNC(=O)OCc1nc(NC(=O)COS(=O)(=O)NC)sc1Cc1cccc(Cl)c1 [Example 60, 2-((5-(3-chlorobenzyl)-4-(((methylcarbamoyl)oxy)methyl)thiazol-2-yl)amino)-2-oxoethyl methylsulfamate] |  | 1 to 10 |
| CNS(=O)(=O)OCC(=O)Nc1nc(C)c(Oc2cccc(Cl)c2)s1 [Example 61, 2-((5-(3-chlorophenoxy)-4-methylthiazol-2-yl)amino)-2-oxoethyl methylsulfamate] |  | 0.5 to 1 |
| CNS(=O)(=O)OCC(=O)Nc1nc2c(s1)C(c1cccc(Cl)c1)CCC2 (stereo not shown) [Example 62, 2-((7-(3-chlorophenyl)-4,5,6,7-tetrahydrobenzo[d]thiazol-2-yl)amino)-2-oxoethyl methylsulfamate] |  | ≤ 0.5 |
